From ChEMBL document CHEMBL1201862, “PubChem BioAssay data set” (2004)
Each block holds one compound with its values, some of them ahead of it. Active and inactive are the calls of the source.

Legend:
[1] = biological target: Neuropeptide Y receptor type 1 (Homo sapiens, UniProt P25929); experiment: NPY-Y1 receptor antagonist potency, dose response, cell-based (AID 1277); format: functional
[2] = biological target: Neuropeptide Y receptor type 2 (Homo sapiens, UniProt P49146); experiment: NPY-Y2 antagonist potency, selectivity check, dose response, counter-screen for NPY-Y1 antagonist project, cell-based (AID 1278); format: functional
NADPH oxidase 1 = biological target: T1, NADPH oxidase 1 (Homo sapiens, UniProt Q9Y5S8); experiment: Luminescence-based cell-based dose response assay to identify inhibitors of NADPH oxidase 1 (NOX1).; format: functional
T1 sequence (Q9Y5S8 whole entry): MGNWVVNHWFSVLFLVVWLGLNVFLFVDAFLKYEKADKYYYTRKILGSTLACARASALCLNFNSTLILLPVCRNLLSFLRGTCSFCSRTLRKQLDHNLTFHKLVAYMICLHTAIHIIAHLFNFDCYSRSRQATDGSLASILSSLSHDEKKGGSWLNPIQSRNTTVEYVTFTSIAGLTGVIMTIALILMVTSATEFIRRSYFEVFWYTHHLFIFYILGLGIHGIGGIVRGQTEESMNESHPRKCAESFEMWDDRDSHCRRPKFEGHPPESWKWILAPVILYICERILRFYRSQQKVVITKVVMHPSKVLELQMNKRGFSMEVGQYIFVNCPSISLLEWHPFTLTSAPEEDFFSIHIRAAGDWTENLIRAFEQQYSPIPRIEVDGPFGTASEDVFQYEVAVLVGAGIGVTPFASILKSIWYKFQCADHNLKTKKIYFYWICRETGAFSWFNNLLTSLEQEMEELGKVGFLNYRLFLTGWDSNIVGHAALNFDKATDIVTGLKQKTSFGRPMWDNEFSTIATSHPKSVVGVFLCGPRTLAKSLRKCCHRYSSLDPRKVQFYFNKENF

[3] = HEp-2 cell cytotoxicity, dose response, cytotoxicity control for RSV inhibitor project, HTS (AID 2410); format: functional; conditions: human respiratory syncytial virus
[4] = CRF-BP/CRF-R2 complex antagonists, dose response, cell-based, uHTS hits, 384-well (AID 651639); format: functional, Homo sapiens; conditions: read-out: IC50_Mean
[5] = biological target: T2, Corticotropin-releasing factor receptor 2/Corticotropin-releasing factor-binding protein (Homo sapiens, UniProt P24387+Q13324); experiment: Dose Response confirmation of uHTS hits for small molecule antagonists of the CRF-binding protein and CRF-R2 receptor complex.; format: functional; conditions: read-out: IC50_Mean
T2 sequence (Q13324 whole entry): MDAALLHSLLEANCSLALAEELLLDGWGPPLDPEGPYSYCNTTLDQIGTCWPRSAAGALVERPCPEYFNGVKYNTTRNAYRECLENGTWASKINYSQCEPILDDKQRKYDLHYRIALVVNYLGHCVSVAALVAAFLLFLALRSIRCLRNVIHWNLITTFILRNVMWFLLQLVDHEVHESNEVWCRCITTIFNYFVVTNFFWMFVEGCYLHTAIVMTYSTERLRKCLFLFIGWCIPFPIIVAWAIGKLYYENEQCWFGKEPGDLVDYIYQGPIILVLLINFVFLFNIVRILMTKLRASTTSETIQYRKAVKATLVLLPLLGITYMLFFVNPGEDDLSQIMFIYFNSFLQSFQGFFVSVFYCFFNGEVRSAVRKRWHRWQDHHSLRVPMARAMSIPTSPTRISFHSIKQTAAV
T2 sequence (P24387 whole entry): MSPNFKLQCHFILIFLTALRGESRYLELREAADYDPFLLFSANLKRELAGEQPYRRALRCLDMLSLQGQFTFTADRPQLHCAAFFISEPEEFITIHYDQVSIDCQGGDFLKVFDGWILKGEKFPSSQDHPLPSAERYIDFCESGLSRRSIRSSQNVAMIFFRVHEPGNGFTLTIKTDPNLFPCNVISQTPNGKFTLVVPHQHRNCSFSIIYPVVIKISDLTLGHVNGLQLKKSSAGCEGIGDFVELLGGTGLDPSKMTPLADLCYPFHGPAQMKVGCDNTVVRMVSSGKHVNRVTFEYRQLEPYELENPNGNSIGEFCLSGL

[6] = biological target: T2, Corticotropin-releasing factor receptor 2/Corticotropin-releasing factor-binding protein; experiment: activators of CRF receptor 2 with binding protein – uHTS hits, confirmation (AID 602473); format: functional; conditions: read-out: EC50_Mean

Chain of Neuropeptide Y receptor type 1 (P25929 whole entry): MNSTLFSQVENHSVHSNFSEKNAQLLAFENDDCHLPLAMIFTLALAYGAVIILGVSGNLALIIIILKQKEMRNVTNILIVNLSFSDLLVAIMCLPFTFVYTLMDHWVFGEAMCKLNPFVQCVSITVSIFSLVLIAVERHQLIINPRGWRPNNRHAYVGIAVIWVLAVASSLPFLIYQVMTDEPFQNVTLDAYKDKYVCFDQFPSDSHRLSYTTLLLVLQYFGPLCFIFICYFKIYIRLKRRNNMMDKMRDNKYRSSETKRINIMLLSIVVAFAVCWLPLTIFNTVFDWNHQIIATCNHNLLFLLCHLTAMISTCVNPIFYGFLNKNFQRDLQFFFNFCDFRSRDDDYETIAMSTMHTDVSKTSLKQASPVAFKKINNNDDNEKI
Chain of Neuropeptide Y receptor type 2 (P49146 whole entry): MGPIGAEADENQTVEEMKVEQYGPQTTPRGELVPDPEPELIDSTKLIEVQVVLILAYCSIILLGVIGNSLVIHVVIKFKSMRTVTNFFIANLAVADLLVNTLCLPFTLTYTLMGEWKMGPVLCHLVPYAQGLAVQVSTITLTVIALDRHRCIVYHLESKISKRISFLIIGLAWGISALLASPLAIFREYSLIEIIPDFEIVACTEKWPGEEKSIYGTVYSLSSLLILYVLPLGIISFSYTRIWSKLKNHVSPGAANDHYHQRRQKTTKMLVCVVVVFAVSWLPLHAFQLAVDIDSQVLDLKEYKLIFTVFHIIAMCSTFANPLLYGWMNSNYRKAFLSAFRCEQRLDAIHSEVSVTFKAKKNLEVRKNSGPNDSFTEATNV

IC50 [1]: 30.4 µM (not active) | IC50 [2]: > 35 µM (not active)
SMILES: COc1ccccc1N(CC(=O)NC1CCCC1)C(=O)c1oc(C(C)(C)C)cc1C

IC50 (NADPH oxidase 1): 0.053 µM (active)
SMILES: CC(=NNc1ccc(C(=O)O)cc1)c1ccc2c(c1)Nc1ccccc1S2

SMILES: O=C(O)c1ccc(-c2nc(-c3ccc(Cl)cc3Cl)cs2)cc1
CC50 [3]: > 50 µM (active) | IC50 [4]: > 20 µM (inactive) | IC50 (cells): 44.2 µM (active) | IC50 [5]: 3.82 µM (active) | EC50 [6]: > 53 µM (inactive)
